Reference: US20260091068A1, “METHODS FOR TREATING AND PREVENTING DISEASES” (priority 2017, published 2026)

Legend:
[1] = tested on: bacteriophages from swabs of hands, masks and work surfaces; test: Bacterial DNA in blood (16S RT-PCR) after water with phages from treated objects and surfaces (Example 5); format: in vivo; settings: average of 3 experiments
Procedure: Fourteen days after including any product enriched with bacteriophage mixture into the mice diet, the mice blood was aseptically taken and bacterial DNA content in the bloodstream was evaluated. Increased DNA content in blood indicates an increase of intestinal permeability reflecting increased translocation of microorganisms from the gastro-intestinal tract into the systemic circulation. (See Deitch E. A., et al. Effect of hemorrhagic shock on bacterial translocation, intestinal morphology, and intestinal permeability in conventional and antibiotic-decontaminated rats. Critical care medicine 18.5 (1990), 529-536). DNA was isolated with a kit for the isolation of nucleic acids DNAQamp Qiagen. Quantitative determination of DNA was carried out by RT-PCR using universal bacterial primers for 16S rRNA (upb2 with a universal FAM-probe for bacteria: (5FAM) aat acg ttc ccg ggt ctt gta cac acc gcc cgt cac act att (3′RTQ1) (SEQ ID NO: 6) and DG74 5′aac tgg agg aag gtg ggg at 3′ (SEQ ID NO: 7)) on Bio-Rad CFX96 amplifier. Reaction conditions: 95° C.—5 min. 45 cycles 95° C.—15 sec, 60° C.—30 sec, fluorescence reading.
Bacteriophages were obtained from the swabs from hands and masks of medical staff and work surfaces in surgical clinics. The hands, masks and surfaces were subjected to various kinds of treatments in order to reduce the amount of phages on them. After the treatment, phages were isolated by the Gratia's method (Kropinski et al. “Enumeration of bacteriophages by double agar overlay plaque assay.” Bacteriophages: Methods and Protocols, Volume 1: Isolation, Characterization, and Interactions, Humana Press, 2009, vol. 501, 69-76). Test material (swabs) was filtered through 0.45 μm Millipore membrane filters. The resulting filtrate was incubated at 60° C. for 60 minutes to inactivate bacteria and was added to 100 μL of water. The resulting solutions were given to animals with water, and the development of an increased intestinal permeability was evaluated as described in Example 4, above. The animals were divided into the following treatment groups:
Group “PHG”: water with the addition of bacteriophages obtained from objects and surfaces treated with a 0.1% (1000 mg/L) polyhexamethylene guanidine derivative preparation. The polyhexamethylene guanidine preparation used in this treatment was prepared by condensation polymerization of hexamethylenediamine with guanidine salt and hydrazine hydrate, as described in U.S. Provisional Pat. Appl. No. 62/510,446, U.S. Pat. No. 8,993,712, U.S. Pat. Appl. Pub. No. 2017/0013838 and Int. Pat. Appl. Pub. No. WO2016/118043.
Group “Photocatalyst”: water with the addition of bacteriophages obtained from objects and surfaces treated with TiO2 and activated by ultraviolet radiation. […]

hairless mice = test: General skin elasticity after 36 weeks of water application (Example 7); format: in vivo; settings: vs untreated left part of the back
Procedure: In the experiment, hairless mice, 5 males and 5 females, (C57BL/6 albino/hairless, The Jackson Laboratories) of both sexes were used. Starting from 4 weeks of age, animals were daily treated with tap water or mineral water from artesian source, the water applied on the right half of the back. After 36 weeks, skin condition parameters were evaluated (SoftPlusCPU (Callegaris.p.a.)) in the application area, compared with the untreated left part of the back. Animals were divided into the following treatment groups:
Group “Filtration”: water filtered through 0.22 μm Millipore membrane filters.
Group “Electron”: water treated with an electron flow.
Group “Prototype”: water treated with potassium nitrate.

[2] = tested on: bacteriophages isolated from waste water; test: Bacterial DNA in blood (16S RT-PCR) after diet with phage-enriched, treated products (Example 4); format: in vivo, Wistar rats; settings: blood after 14 days, average of 3 experiments
Procedure: As a source for the isolation of bacteriophages, waste water from canalization was used. The phages were isolated by Gratia's method (Kropinski et al. “Enumeration of bacteriophages by double agar overlay plaque assay.” Bacteriophages: Methods and Protocols, Volume 1: Isolation, Characterization, and Interactions, Humana Press, 2009, vol. 501, 69-76). Test material (waste water) was filtered through 0.45 μm Millipore membrane filters. The resulting filtrate was incubated at 60° C. for 60 minutes to inactivate bacteria and was added to water or products (e.g., milk, yogurt, curd, cheese, minced meat, minced chicken, fish, fruit mix, vegetable mixture) in 100 μL volume. The resulting food products enriched with phages were included in the mice diet. […]
Fourteen days after including any product enriched with bacteriophage mixture into the mice diet, the mice blood was aseptically taken and bacterial DNA content in the bloodstream was evaluated. […] Quantitative determination of DNA was carried out by RT-PCR using universal bacterial primers for 16S rRNA (upb2 with a universal FAM-probe for bacteria: (5FAM) aat acg ttc ccg ggt ctt gta cac acc gcc cgt cac act att (3′RTQ1) (SEQ ID NO: 6) and DG74 5′aac tgg agg aag gtg ggg at 3′ (SEQ ID NO: 7)) on Bio-Rad CFX96 amplifier. […] 45 cycles 95° C.—15 sec, 60° C.—30 sec, fluorescence reading.

[3] = tested on: bacteriophages isolated from the feces of obese mice; test: Body weight after 21 weeks of drinking water with phages from obese mice (Example 6); format: in vivo; settings: treated drinking water with phages from obese mice; standard diet
Procedure: To assess a possibility of preventing changes in the GI microbiota leading to obesity by limiting bacteriophage entry from the environment, bacteriophages were isolated from the feces of Group #1 mice in which obesity was modeled. The obtained phages were added to drinking water of mice (age 12 weeks) from Group #2 for 21 weeks. The diet of the animals remained standard, i.e., not a high fat diet. The mice in Group #2 were divided into the following treatment groups:
Group “Filtration”: water with the addition of bacteriophages, filtered through 0.45 μm Millipore membrane filters.
Group “Pascalization”: water with the addition of bacteriophages, treated with high pressure (340 MPa).
Group “Prototype”: water with the addition of bacteriophages, treated with potassium nitrate.

Structure (SMILES) | Number of cycles during which bacterial DNA appears (Cq) [1] [cycles] | Change in parameter of general skin elasticity (hairless mice; Tap water) [%] | Change in parameter of general skin elasticity (hairless mice; Well water) [%] | Number of cycles during which bacterial DNA appears (Cq) ([2]; phages added to cheese) [cycles] | Number of cycles during which bacterial DNA appears (Cq) ([2]; phages added to water) [cycles] | Animal body weight after 21 weeks [3] [g]
[Cu+2] [Metals, Cu^2+] | 29.51 |  |  |  |  | 
O=[O+][O-] [Ozone, ozone] | 27.74 |  |  |  |  | 
OO [Peroxide, H2O2] | 31.65 |  |  |  |  | 
O=[N+]([O-])[O-].[K+] [Prototype, potassium nitrate] | 17.92 | −42.9 | −41.4 | 19.79 | 17.28 | 46
